According to US20160250253A1, “STRONTIUM-CONTAINING COMPLEXES FOR TREATING GASTROESOPHAGEAL REFLUX AND BARRETT'S ESOPHAGUS” (priority 2013, published 2016):

Experiments:
[1] = system: Helicobacter pylori; conditions: cited from earlier work
[2] = system: ulcer; conditions: cited from earlier work
[3] = system: acid-induced pain; experiment: Double blind study of glycolic acid induced pain on the forearm; assay type: in vivo, human; conditions: 25% glycolic acid with or without 250 millimolar gallic acid, topical on forearm, pain rated 0-4 every minute for 10 minutes
Experimental: Briefly, in a double blind study, 25% glycolic acid solutions with or without 250 millimolar of gallic acid were applied to an 2×8 inch area of the forearm of the study participants. The pain level was assessed at time of application and every minute thereafter for 10 minutes. Study participants rated the pain levels on a 0-4 scale where 0 was no pain; 1 was slight pain; 2 was mild pain; 3 was moderate pain; and 4 was unbearable pain.

[4] = target: KCa 3.1 (Homo sapiens, UniProt O15554); conditions: cited from earlier work
[5] = system: cancer cell lines; conditions: series of cancer cell lines; cited from earlier work
[6] = system: esophageal cancer cells (TE-2); conditions: cited from earlier work
[7] = system: pain of sore throat; experiment: Sore throat pain after gargling; assay type: in vivo; conditions: within several minutes after gargling, clinical observations
Text: Since acidic material from the stomach is what causes the burning pain and inflammation in GER, it is hypothesized that strontium would be effective in treating GER.

[8] = oral, 680 mg of elemental strontium per day; cited from earlier work
[9] = system: TCN activation by highly acidic chemical peels; experiment: Burning pain from 70% glycolic acid, pH 0.6, applied to the skin; assay type: in vivo, human; conditions: strontium mixed with 70% glycolic acid
Experimental: Nociceptors also have a CaSR that inhibits nociceptor activation when the extracellular concentration of calcium is raised above normal, or if a similar concentration of strontium is administered. […] When strontium is mixed with the acid, burning pain and stinging is suppressed by 80% or more so that any remaining sensory irritation is not bothersome.

[10] = system: burning pain due to 1% lactic acid; experiment: Burning pain from 1% lactic acid instilled on the conjunctiva of the eye; assay type: in vivo; conditions: 1% lactic acid on the conjunctiva, pilot studies in humans
[11] = system: Type C nociceptors; experiment: Substance P release by Type C nociceptors, unpublished animal studies; assay type: in vivo
Text: As mentioned above, acid from the stomach activates many pathways that trigger pain and inflammation such as the release of substance P, neurokinin A, and CGRP. […] While the precise molecular mechanism by which strontium inhibits substance P release is unknown, it is believed that the release of substance P, neurokinin A and CGRP occur together and by the same or similar trigger mechanism.

[12] = system: TCN activation by highly acidic chemical peels; conditions: topically applied, 70% glycolic acid, pH 0.6 on the skin, previous studies; cited from earlier work
[13] = system: histamine-induced itching; conditions: topical; cited from earlier work
[14] = system: synaptotagmin-1; conditions: strontium substitutes for calcium; cited from earlier work
[15] = system: CICR pathway; conditions: cited from earlier work

SMILES: O=C(O)C=Cc1ccccc1 [cinnamic acid]
- H. pylori growth [1]: inhibition of H. pylori growth
- ulcer-preventing properties [2]: ulcer-preventing properties

SMILES: O=C(O)c1cc(O)c(O)c(O)c1 [gallic acid, 3,4,5-trihydroxybenzoic acid]
- acid induced pain [3]: effective in reducing or preventing the acid induced pain
- block of KCa 3.1 [4]: does not block
- cell proliferation [5]: significant inhibition of cell proliferation
- apoptosis [6]: induced apoptosis
- H. pylori growth [1]: inhibition of H. pylori growth
- ulcer-preventing properties [2]: ulcer-preventing properties

SMILES: [Cl-].[Cl-].[Sr+2] [strontium chloride solution, strontium chloride]
- pain of sore throat [7]: greatly relieved, if not eliminated

SMILES: N#Cc1c(N(CC(=O)[O-])CC(=O)[O-])sc(C(=O)[O-])c1CC(=O)[O-].[Sr+2].[Sr+2] [strontium ranelate]
- fraction absorbed by the GI tract into the blood [8]: approximately 25%

SMILES: [Sr+2] [strontium]
- suppression of burning pain and stinging [9]: ≥ 80%
- burning pain [10]: inhibit burning pain
- substance P release [11]: inhibit substance P release
- intense burning pain [12]: virtually abolish
- injected histamine-induced itching [13]: significantly inhibited
- reduction of amplitude of synchronous neurotransmitter release [14]: > 90%
- ability to induce CICR relative to calcium [15]: over a hundred-fold less active than calcium
- concentration in the ER relative to calcium ([15]; greater than calcium): more than 150%
- fraction absorbed by the GI tract into the blood [8]: approximately 25%
